Article PMC9917184, “Synthesis and Biological Evaluation of Potential Oncoimmunomodulator Agents” (International Journal of Molecular Sciences, 2023)
Like-named read-outs stand apart in the source and are kept apart here.

Tests used:
PD-L1 [1] = biological target: T1, PD-L1 (Homo sapiens, UniProt Q9NZQ7); assay: Total PD-L1 relative quantification by flow cytometry in cancer cell lines; assay type: cell-based; parameters: Alexa Fluor® 647 Rabbit monoclonal Anti-PD-L1 (ab215251); endogenous in cells; host or cells: HT-29; conditions: 24 h, total PD-L1 relative to negative control (DMSO)
T1 sequence (Q9NZQ7 19-290): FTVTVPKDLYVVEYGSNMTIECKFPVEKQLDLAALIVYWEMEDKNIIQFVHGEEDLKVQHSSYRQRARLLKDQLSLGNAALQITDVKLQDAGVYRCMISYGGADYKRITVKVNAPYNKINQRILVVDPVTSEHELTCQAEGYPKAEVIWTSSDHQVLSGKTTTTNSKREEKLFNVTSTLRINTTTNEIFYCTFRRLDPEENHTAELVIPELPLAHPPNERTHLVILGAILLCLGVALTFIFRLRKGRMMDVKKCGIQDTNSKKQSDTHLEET
Experimental: The effect of these triazole derivates on c-Myc and PD-L1 was measured in three different cancer cell lines (HT-29, MCF-7, A-549) by flow cytometry. Thus, cells were incubated for 24 h with the corresponding compound at a concentration of 100 μM. Dimethyl sulfoxide (DMSO)-treated cells were used as the negative control, and a PD-L1 inhibitor, BMS-8 [29, 31], was used as a reference control. After permeabilization and fixation, cells were treated with anti-PD-L1 conjugated to AlexaFluor®647 and anti-c-Myc conjugated to fluorescein to determine the amount of both targets related to the negative control. Table 1 show the results in terms of the percentage of the detected target in relation to the negative control. This assay was carried out on cancer cell lines HT-29, MCF-7, and A-549.
To study the effect of the compounds on every biological target in cancer cell lines, the compounds were used at a 100 µM dose.
For the assay, 10^5 cells per well were incubated for 24 h with the corresponding dose of the tested compound in a total volume of 500 μL of their growth media.
To detect total PD-L1 and c-Myc, after the cell treatments, they were collected and fixed with 4% in PBS paraformaldehyde. After fixation, a treatment with 0,5% in PBS Triton™ X-100 was performed, and finally, cells were stained with FITC Mouse monoclonal Anti-c-Myc (ab223913) and Alexa Fluor® 647 Rabbit monoclonal Anti-PD-L1 (ab215251).

c-Myc [2] = assay: Immunofluorescence microscopy of c-Myc in MCF-7; assay type: cell-based, human; conditions: MCF-7, 24 h of treatment
From the text: We also observed the effect of triazole derivatives 3, 5 and 7 on both targets in MCF-7 by immunofluorescence microscopy (see Figure 2). We stained both targets with anti-PD-L1 conjugated to AlexaFluor®647 (red in Figure 2), as well as anti-c-Myc conjugated to fluorescein (green in Figure 2), to determine the amount of both targets. The nucleus was stained with Hoechst (blue in Figure 2).
We observed that in the DMSO control, c-Myc was located in the nucleus of the cell and the nucleus membrane nearby, and PD-L1 was preferentially positioned in the membrane or cytosol, favoring the contact between surrounding cells.
For immunofluorescence microscopy of the microtubule network, […] cells were plated on cover glass and incubated with the selected compounds. Cells were then fixed in 4% formaldehyde (in PBS pH 7.4) for 20 min at room temperature and permeabilized with PBS-Triton X-100 0.5% for 1 min at room temperature. Direct immunostaining was carried out for 1 h at room temperature with FITC Mouse monoclonal Anti-c-Myc (ab223913) and Alexa Fluor® 647 Rabbit monoclonal Anti-PD-L1 (ab215251). Then, cells were washed in PBS, and cover glasses were mounted with a drop of ProLong® antifade solution (Invitrogen). The cytoskeleton was imaged by a confocal laser scanning microscope (CLSM) Leica SP5 with a Leica inverted microscope, equipped with 20x objective. Each image was recorded with the CLSM’s spectral mode selecting specific domains of the emission spectrum. The FITC fluorophore was excited at 488 nm with an argon laser, and its fluorescence emission was collected between 496 nm and 535 nm.

Jurkat T cells = assay: Jurkat T cell viability in co-culture with cancer cells (flow cytometry count); assay type: cell-based; conditions: Homo sapiens, 24 h, read-out: percentage of living Jurkat cells relative to non-treated co-cultures
Experimental: The effect of the synthesized compounds on tumor cell proliferation in the presence of PD-1-expressing Jurkat T cells was also studied. This assay was carried out, as in the previous experiments, in the HT29, MCF7, and A549 cell lines (see Table 4). Interferon γ-stimulated cancer cells were treated for 24 h with the compounds at 100 μM in presence of Jurkat T cells. Then, cells were counted using flow cytometry. The percentage of living cells relative to non-treated co-cultures (control) was established for both cancer and immune cells in every co-culture.
To study the effect of the compounds on the cell viability in co-culture with Jurkat T cells or THP-1 cells, 10^5 or 2 × 10^5 of the corresponding cancer cells line per well were seeded and incubated for 24 h, then the medium was changed by one cell culture medium supplemented with IFN-γ (10 ng/mL; human, Invitrogen®) and containing 5 × 10^5 or 10^5 Jurkat T cells or THP-1, respectively, per well and 100 µM of the corresponding compound or DMSO for the […] control. After 24 h/48 h of incubation, supernatants were collected to determine Jurkat T or THP-1 living cells, and on the other hand, corresponding cancer cells were collected with trypsin. Both types of suspension cells were fixed with 4% in PBS paraformaldehyde and counted by flow cytometry.

membrane VEGFR-2 = assay: Membrane VEGFR-2 relative quantification by flow cytometry in cancer cells co-cultured with Jurkat T cells; assay type: cell-based, human; conditions: 100 μM, 24 h; for %VEGFR2 (membrane): relative to non-treated co-cultures
Experimental: We determined by flow cytometry the effect of these compounds on the expression of membrane PD-L1 in cancer cells when they were co-cultured with immune cells. Thus, interferon γ-stimulated cancer cells were treated for 24 h with the compounds at 100 μM in presence of Jurkat T cells. Then, cells were fixed and treated with anti-PD-L1 conjugated to AlexaFluor®647. We took advantage of the versatility of flow cytometry to simultaneously measure the expression of membrane VEGFR-2 by using anti-VEGFR-2 conjugated to fluorescein.
To study the effect of the compounds on every biological target in co-cultured cancer cell lines, the compounds were incubated for 24h as described before.
To detect membrane PD-L1 and VEGFR-2, after the cell treatments, they were collected, fixed with 4% in PBS paraformaldehyde, and stained with FITC Mouse monoclonal Anti-Human VEGFR-2 (ab184903) and Alexa Fluor® 647 Rabbit monoclonal Anti-PD-L1 (ab215251).

PD-L1 [3] = biological target: T1, PD-L1; assay: Total PD-L1 relative quantification by flow cytometry in cancer cell lines; assay type: cell-based; parameters: Alexa Fluor® 647 Rabbit monoclonal Anti-PD-L1 (ab215251); endogenous in cells; host or cells: HT-29
c-Myc [4] = assay: Total c-Myc relative quantification by flow cytometry in cancer cell lines; assay type: cell-based, human
[5] = A549 co-cultured with Jurkat T cells
[6] = HT29 co-cultured with Jurkat T cells
[7] = MCF7 co-cultured with Jurkat T cells

| remaining activity at 100 µM (PD-L1 [1]; A549, A-549, 100 µM) [%] | remaining activity at 100 µM (PD-L1 [1]; HT-29, 100 µM) [%] | remaining activity at 100 µM (PD-L1 [1]; MCF7, MCF-7, 100 µM) [%] | Compound | c-Myc localisation (confocal images) (c-Myc [2]) | viability at 100 µM (Jurkat T cells; A-549/Jurkat T co-culture) [%] | viability at 100 µM (Jurkat T cells; HT-29/Jurkat T co-culture) [%] | viability at 100 µM (Jurkat T cells; MCF-7/Jurkat T co-culture) [%] | %VEGFR2 (membrane) (membrane VEGFR-2; [5]) [%] | %VEGFR2 (membrane) (membrane VEGFR-2; [6]) [%] | %VEGFR2 (membrane) (membrane VEGFR-2; [7]) [%] | other results |
| --- | --- | --- | --- | --- | --- | --- | --- | --- | --- | --- | --- |
| 70 ± 8 | 68 ± 10 | 77 ± 3 | Cc1c(COc2ccc(CN3CCCCC3C(=O)O)cc2Br)cccc1-c1ccccc1 (stereo not shown) [BMS-8, reference compound] | not altered | 99 ± 9 | 148 ± 11 | 53 ± 27 | 104 ± 9 | 63 ± 4 | 100 ± 2 |  |
| 58 ± 10 | 47 ± 1 | 108 ± 13 | COc1ccc(C(OCCc2ccc(CCn3cc(-c4ccc(Br)cc4)nn3)cc2)(c2ccccc2)c2ccc(OC)cc2)cc1 [Compound 3, 1-(4-(2-(bis(4-methoxyphenyl)(phenyl)methoxy)ethyl)phenethyl)-4-(4-bromophenyl)-1H-1,2,3-triazole] | preferentially in the nucleus of the cells | 86 ± 4 | 108 ± 33 | 75 ± 10 | 73 ± 4 | 81 ± 7 | 81 ± 4 | remaining activity at 10 µM (PD-L1 [3]; 24 h, HT-29, dose 10 µM): 101 ± 2%; remaining activity at 25 µM (PD-L1 [3]; 24 h, HT-29, dose 25 µM): 111 ± 4%; remaining activity at 50 µM (PD-L1 [3]; 24 h, HT-29, dose 50 µM): 90 ± 3%; remaining activity at 10 µM (PD-L1 [3]; MCF7, 24 h, MCF-7, dose 10 µM): 52 ± 2%; remaining activity at 25 µM (PD-L1 [3]; MCF7, 24 h, MCF-7, dose 25 µM): 58 ± 3%; remaining activity at 50 µM (PD-L1 [3]; MCF7, 24 h, MCF-7, dose 50 µM): 69 ± 4%; % c-Myc (c-Myc [4]; HT-29, dose 10 µM): 109 ± 9%; % c-Myc (c-Myc [4]; HT-29, dose 25 µM): 100 ± 3%; % c-Myc (c-Myc [4]; HT-29, dose 50 µM): 88 ± 5%; % c-Myc (c-Myc [4]; MCF-7, dose 10 µM): 56 ± 5%; % c-Myc (c-Myc [4]; MCF-7, dose 25 µM): 62 ± 5%; % c-Myc (c-Myc [4]; MCF-7, dose 50 µM): 75 ± 9%; membrane VEGFR-2 inhibition rate (membrane VEGFR-2; A-549 co-cultured with Jurkat T cells): around 20%; membrane VEGFR-2 inhibition rate (membrane VEGFR-2; HT-29 co-cultured with Jurkat T cells): around 20%; membrane VEGFR-2 inhibition rate (membrane VEGFR-2; MCF-7 co-cultured with Jurkat T cells): around 20% |
| 70 ± 16 | 38 ± 1 | 87 ± 1 | COc1ccc(C(OCCc2ccc(CCn3cc(-c4cccc(Br)c4)nn3)cc2)(c2ccccc2)c2ccc(OC)cc2)cc1 [Compound 5, 1-(4-(2-(bis(4-methoxyphenyl)(phenyl)methoxy)ethyl)phenethyl)-4-(3-bromophenyl)-1H-1,2,3-triazole] | aggregated around the nucleus membrane | 93 ± 9 | 48 ± 1 | 96 ± 8 | 92 ± 2 | 85 ± 4 | 85 ± 4 |  |
| 86 ± 20 | 45 ± 7 | 80 ± 4 | COc1ccc(C(OCCc2ccc(CCn3cc(-c4ccccc4Br)nn3)cc2)(c2ccccc2)c2ccc(OC)cc2)cc1 [Compound 7, 1-(4-(2-(bis(4-methoxyphenyl)(phenyl)methoxy)ethyl)phenethyl)-4-(2-bromophenyl)-1H-1,2,3-triazole] | aggregated in the nucleus of the cells | 79 ± 11 | 70 ± 8 | 94 ± 12 | 89 ± 5 | 93 ± 3 | 100 ± 0 |  |
